Legend:
[1] = diet supplementation; cited from earlier work
[2] = system: Chlorella vulgaris SAG211-11B; assay: Selenium enrichment of Chlorella vulgaris microalga cultured with a selenium source, mixotrophic conditions; analysis of selenium components; format: cell-based; details: 20 mgSe/l added once in exponential growth phase; 7 days incubation; mean of triplicate
Experimental: In these tests, the strain used is a strain of Chlorella vulgaris SAG211-11B: an axenic strain originating from the SAG collection of the University of Göttingen (SAG: Sammlung von Algenkulturen der Universität Göttingen [Collection of Alga Cultures of the University of Göttingen]) which was cultured under mixotrophic conditions in the following medium:
(§1) The pH was adjusted to 7.2 and the medium was autoclaved at 121° C. for 15 minutes.
The organic source of selenium, namely 2-hydroxy-4-methylselenobutanoic acid (THD-177, Tetrahedron SAS, France, CAS: 873660-49-2) was administered at a concentration of 20 mg/l on a selenium equivalent basis, i.e. 50 mg/l of 2-hydroxy-4-methylselenobutanoic acid.
The inorganic selenium source ([…], sodium selenite) was administered at a concentration of 20 mg/l on a selenium equivalent basis, i.e. 43.9 mg/l of sodium selenite.
The compound containing selenium was added just one time in the exponential growth phase of the Chlorella vulgaris strain (i.e. 3 days after the inoculation).
After incubation for 7 days, the medium was filtered through a 0.2 micron Nalgene membrane (Ref a-PES, diameter 90 mm), and the cell retentate was rinsed with physiological saline. The wet cell mass was lyophilized for analysis of the constituents containing selenium (total selenium, selenomethionine and sodium selenite).
(§2) The total selenium was assayed by ICP coupled to detection by mass, after mineralization of the sample. The speciation of the selenium was carried out by high performance liquid chromatography coupled to tandem mass detection, after enzyme digestion of the sample, according to the method described by Lobinsky et al., in Mester, Z. et al. (2006) Annal. Bioanal. Chem. 385: 168-180.
Table 1 below indicates the average values, on a selenium equivalent basis, obtained in triplicate for incubation times of 7 days.

[3] = system: Arthrospira platensis 3054-E0001; assay: Selenium enrichment of Arthrospira platensis microalga cultured with a selenium source, autotrophic conditions; analysis of selenium components; format: cell-based; details: 25 mgSe/l added once just after inoculation (T=0); 10 days incubation; mean of triplicate
Experimental: In these tests, the strain used is a strain of Arthrospira platensis 3054-E0001.
The 3054-50001 strain was cultured under autotrophic conditions in the following medium:
as §1
The organic source of selenium, namely 2-hydroxy-4-methylselenobutanoic acid (THD-177, Tetrahedron SAS, France, CAS: 873660-49-2) was administered at a concentration of 25 mg/l on a selenium equivalent basis, i.e. 62.5 mg/l of 2-hydroxy-4-methylselenobutanoic acid.
The inorganic selenium source ([…], sodium selenite) was administered at a concentration of 25 mg/l on a selenium equivalent basis, i.e. 54.4 mg/l of sodium selenite.
The compound containing selenium was added just one time, just after the inoculation with the Arthrospira platensis strain (i.e. T=0).
After incubation for 10 days, the cell pellet was filtered through a 0.2 micron Nalgene membrane, and the cell retentate was rinsed with physiological saline. The wet cell mass was lyophilized for analysis of the constituents containing selenium (total selenium, selenomethionine and sodium selenite).
as §2
Table 2 below indicates the average values, on a selenium equivalent basis, obtained in triplicate for incubation times of 10 days.
In these tests, the strain used is a strain of Arthrospira platensis 3054-E0001. […]

Structure (SMILES)	Toxicity compared with an intake in the form of sodium selenite [1]	Se(IV) [2] [mgSe/kg biomass]	SeMethionine [2] [mgSe/kg biomass]	Total Se [2] [mgSe/kg biomass]	Se(IV) [3] [mgSe/kg biomass]	SeMethionine [3] [mgSe/kg biomass]	Total Se [3] [mgSe/kg biomass]
C[Se]CC[C@H](N)C(=O)O [L(+)-selenomethionine]	much less toxic	–	–	–	–	–	–
O=[Se](O)O [NaSe, sodium selenite]	–	4.1 ± 0.4	29 ± 2	144 ± 5	5.1 ± 0.3	13 ± 3	177 ± 2

From patent US9017985B2, “Photosynthetic microorganisms enriched in selenium using selenohydroxy acid compounds, used thereof in nutrition, cosmetics and pharmacy” (Metabolium, priority 2008, dated 2015)
